Measurements: US11970483B2, “Heterocyclic compound” (Takeda Pharmaceutical Company Limited, priority 2018, dated 2024)

These compounds were tested against T1, human M1 receptor (hCHRM1) (Homo sapiens, UniProt P11229) (assay: Measurement of M1 receptor positive allosteric modulator (M1PAM) activity (IP1 HTRF, in presence of EC20 acetylcholine)). Conditions: CHO-K1 cells stably expressing hCHRM1; acetylcholine at EC20 concentration; IP1 readout.
T1 construct: expressed in transfected cells
T1 sequence (P11229 1-460): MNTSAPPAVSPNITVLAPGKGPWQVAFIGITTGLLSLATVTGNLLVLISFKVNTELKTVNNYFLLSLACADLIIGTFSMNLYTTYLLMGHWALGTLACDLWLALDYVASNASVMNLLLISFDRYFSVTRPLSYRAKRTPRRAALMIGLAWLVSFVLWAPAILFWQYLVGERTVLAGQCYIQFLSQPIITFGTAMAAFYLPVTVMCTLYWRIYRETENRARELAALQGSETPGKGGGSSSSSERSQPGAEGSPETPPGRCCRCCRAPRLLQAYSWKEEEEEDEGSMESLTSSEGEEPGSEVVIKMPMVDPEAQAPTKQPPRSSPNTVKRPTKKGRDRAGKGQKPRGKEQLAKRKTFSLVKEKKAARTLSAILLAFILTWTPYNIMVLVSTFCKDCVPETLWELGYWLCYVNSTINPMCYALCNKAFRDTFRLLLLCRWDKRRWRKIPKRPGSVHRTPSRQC
Format: cell-based
Method: Measurement of M1 Receptor Positive Allosteric Modulator (M1PAM) Activity
The activity of a test compound in the presence of acetylcholine at an EC20 concentration affording about 20% action of the maximum activity was measured as PAM activity.
The method therefor is as follows. To a 384-well white plate (Greiner) was added 4 μL of the test compound diluted with IP1 Stimulation buffer (CisBio) containing 0.1% fatty acid-free BSA containing 80 nM acetylcholine. Freeze stock of CHO-K1 cells stably expressing human M1 receptor (hCHRM1) was prepared with IP1 Stimulation buffer (CisBio) containing 0.1% fatty acid-free BSA, 4 μL thereof was added (10,000 cells/well) and the mixture was cultured in a 5% CO2 incubator at 37° C. for 1 hr. 4 μL of a solution (CisBio) containing IP1-d2 and Anti-IP1-cryptate Tb conjugate was added, the mixture was incubated at room temperature for 1 hr, and the time-resolved fluorescence signal was measured on an Envision plate reader (PerkinElmer). The activity (%) of the test compound was calculated by defining the value when acetylcholine was added at the final concentration of 20 μM as 100% and the value when DMSO was added instead of the test compound under acetylcholine-free conditions as 0%, and the EC50 value was calculated as a value of 50% of the concentration dependence curve of the test compound.

First: Cc1c(Cc2ccc(C(=O)NCCF)c(F)c2)cc(C(=O)N[C@H]2CCOC[C@@H]2O)c2c1CCO2 [Example 35, 1,5-anhydro-2,3-dideoxy-3-{[5-({3-fluoro-4-[(2-fluoroethyl)carbamoyl]-phenyl}methyl)-4-methyl-2,3-dihydro-1-benzofuran-7-carbonyl]amino}-L-threo-pentitol]
Second: CNC(=O)c1ccc(Cc2cc(C(=O)N[C@H]3CCOC[C@@H]3O)c3c(c2C)CCO3)cc1F [Example 21, 1,5-anhydro-2,3-dideoxy-3-[(5-{[3-fluoro-4-(methylcarbamoyl)phenyl]methyl)-4-methyl-2,3-dihydro-1-benzofuran-7-carbonyl)amino]-L-threo-pentitol]
The EC50 of the first is 1.5-fold lower: 0.016 µM for the first, 0.024 µM for the second. The first is the more potent here.

Going from `CNC(=O)c1ccc(Cc2cc(C(=O)N[C@H]3CCOC[C@@H]3O)c3c(c2C)CCO3)cn1` [Example 36, 1,5-anhydro-2,3-dideoxy-3-[(4-methyl-5-{[6-(methylcarbamoyl)pyridin-3-yl]methyl}-2,3-dihydro-1-benzofuran-7-carbonyl)amino]-L-threo-pentitol] to `Cc1c(Cc2ccc(C(N)=O)cc2)cc(C(=O)N[C@H]2CCOC[C@@H]2O)c2c1CCO2` [Example 5, 1,5-anhydro-3-({5-[(4-carbamoylphenyl)methyl]-4-methyl-2,3-dihydro-1-benzofuran-7-carbonyl}amino)-2,3-dideoxy-L-threo-pentitol], the EC50 falls from 0.13 µM to 0.012 µM (11-fold). The second is the more potent here.

Compared with `Cc1c(Cc2ccc(C(=O)NC[C@@H]3CCCO3)c(F)c2)cc(C(=O)N[C@H]2CCOC[C@@H]2O)c2c1CCO2` [Example 30, 1,5-anhydro-2,3-dideoxy-3-[(5-{[3-fluoro-4-({[(2S)-oxolan-2-yl]methyl}carbamoyl)phenyl]methyl}-4-methyl-2,3-dihydro-1-benzofuran-7-carbonyl)amino]-L-threo-pentitol], `Cc1c(Cc2ccc(C(=O)NC3CC3)c(F)c2)cc(C(=O)N[C@H]2CCOC[C@@H]2O)c2c1CCO2` [Example 31, 1,5-anhydro-3-[(5-{[4-(cyclopropylcarbamoyl)-3-fluorophenyl]methyl}-4-methyl-2,3-dihydro-1-benzofuran-7-carbonyl)amino]-2,3-dideoxy-L-threo-pentitol] is 1.5-fold lower in EC50: 0.056 µM for the first, 0.037 µM for the second.

`Cc1nn(C)cc1-c1ccc(Cc2cc(C(=O)N[C@H]3CCOC[C@@H]3O)c3c(c2C)CCO3)cn1` [Example 3, 1,5-anhydro-2,3-dideoxy-3-[(5-{[6-(1,3-dimethyl-1H-pyrazol-4-yl)pyridin-3-yl]methyl}-4-methyl-2,3-dihydro-1-benzofuran-7-carbonyl)amino]-L-threo-pentitol] and `Cc1c(Cc2ccc(-c3cnn(C)c3)nc2)cc(C(=O)N[C@H]2CCOC[C@@H]2O)c2c1CCO2` [Example 2, 1,5-anhydro-2,3-dideoxy-3-[{4-methyl-5-{[6-(1-methyl-1H-pyrazol-4-yl)pyridin-3-yl]methyl}-2,3-dihydro-1-benzofuran-7-carbonyl)amino]-L-threo-pentitol] are within 1.5-fold of each other in EC50: 0.046 µM for the first, 0.033 µM for the second.
